{"source": "patent US10562869B2", "about": "“Oxadiazole compounds” (REMYND NV, priority 2014, dated 2020)"}
{"system": "M17_3TAU(P301L) cells", "assay": "Retinoic acid-induced cytotoxicity (LDH) in TAU-P301L expressing M17_3TAU(P301L) neuroblastoma cells", "assay_type": "cell-based", "details": "Homo sapiens, Neuroblastoma cell, 168 h; toxicity inhibition (LDH) in M17_3TAU(P301L) cells challenged with retinoic acid, 7 days", "from_the_text": "A TAU expression plasmid was constructed by sub-cloning the cDNA encoding for human TAU-P301L protein, wherein proline at position 301 was substituted by a leucine residue, into mammalian expression vector pcDNA3.1 resulting in the plasmid pcDNA3.1-TAUP301L. Plasmid pcDNA3.1-TAU P301L was transfected into human neuroblastoma cells (BE-M17; ATCC No. CRL-2267™) using lipofectamine reagent and subsequently, independent clonal cell lines with the plasmids stably integrated into the genome were selected by antibiotic resistance selection (Geneticin (G418)), resulting in cell line M17_3TAUP301L. Expression of the TAUP301L gene in the M17_3TAUP301L cells was confirmed by Western blot analysis.\nM17_3TAU(P301L) cells were treated chronically with retinoic acid (RA) in low serum conditions to induce Alzheimer's disease-like intracellular signaling deregulation leading to increased TAU levels and subsequent cell death. Cytotoxicity of cells was measured by quantification of lactate dehydrogenase (LDH) levels. In dead cells LDH leaked out of the cells into the medium due to a loss of plasma-membrane integrity.\n3 days preceding the experiment, a pre-culture of M17_3TAU(P301L) cells was prepared, starting from a stock culture, at a density of 50.000-100.000 cells/cm^2 in culture medium (Optimem Reduced Serum with phenol red (Invitrogen, Cat. 31985-047)) supplemented with 10% fetal calf serum (FCS), 1 mM sodium pyruvate, 1×non-essential amino acids (NEAA), 500 μg/ml G418 and 0.5×(ABAM). At the day of the experiment these precultures were diluted to ˜0.1·10^6 cells/ml in detection medium (Optimem Reduced Serum without phenol red (Gibco, Cat.11058-021) supplemented with 1% fetal calf serum (FCS), 1 mM sodium pyruvate, 1×non-essential amino acids (NEAA), 500 μg/ml G418 and 0.5×ABAM) and 60 μL of this suspension was dispensed per well into a 96-well microtiter plate. After 3 hours of incubation at 37° C./5% CO2 an equal volume of detection medium (without FCS) containing 3.75 μM RA was added and subsequently incubated for 7 days at 37° C./5% CO2. Then LDH activity was determined using the Promega Cytotox 96 Non-Radioactive cytotoxicity assay (Cat. G1780), according to the manufacturer's instructions. Cytotoxicity was defined as the ratio of LDH relative the total LDH in the cells and supernatant.\nThe assay described above using the M17_3TAU(P301L) cell line allowed to screen compounds for their ability to decrease cytotoxicity in RA-challenged cells. Compounds of the invention were tested for their ability to decrease toxicity at different concentrations, ranging from low non-effective concentrations to high potent concentrations. Afterwards, the dose-dependent inhibition curve was used to calculate their EC50. A compound was considered to be active in this test when it inhibited toxicity by more than 20% relative to untreated M17_3TAU(P301L) cells at a concentration of 10 μM or lower.", "units": {"EC50": "nM"}}
{"smiles": "N#CCCCN1CCN(c2nc(CCC(F)(F)F)no2)CC1", "note": "[Cmpd181, 4-(4-(3-(3,3,3-Trifluoropropyl)-1,2,4-oxadiazol-5-yl)piperazin-1-yl)butanenitrile]", "EC50": 584}
{"smiles": "COc1cccc(CCN2CCN(c3nc(Cc4ccccc4)no3)CC2)c1", "note": "[Cmpd042, 1-(3-Benzyl-[1,2,4]oxadiazol-5-yl)-4-[2-(3-methoxy-phenyl)-ethyl]-piperazine]", "EC50": 3}
{"smiles": "COc1cccc(CCN2CCN(c3nc(CC(F)(F)F)no3)CC2)c1", "note": "[Cmpd163, 5-(4-(3-Methoxyphenethyl)piperazin-1-yl)-3-(2,2,2-trifluoroethyl)-1,2,4-oxadiazole]", "EC50": 418}
{"smiles": "Fc1cccc(-c2noc(N3CCN(Cc4ccccc4Cl)CC3)n2)c1", "note": "[Cmpd029, 5-(4-(2-Chlorobenzyl)piperazin-1-yl)-3-(3-fluorophenyl)-1,2,4-oxadiazole]", "EC50": 97}
{"smiles": "FC1(F)Oc2ccc(CN3CCN(c4nc(C5(c6ccccc6)CC5)no4)CC3)cc2O1", "note": "[Cmpd128, 5-(4-((2,2-Difluorobenzo[d][1,3]dioxol-5-yl)methyl)piperazin-1-yl)-3-(1-phenylcyclopropyl)-1,2,4-oxadiazole]", "EC50": 617}
{"smiles": "Cc1cc(Cc2noc(N3CCN(CCc4ccc(Cl)cc4)CC3)n2)ccn1", "note": "[Cmpd170, 5-(4-(4-Chlorophenethyl)piperazin-1-yl)-3-((2-methylpyridin-4-yl)methyl)-1,2,4-oxadiazole]", "EC50": 640}
{"smiles": "N#Cc1ccccc1CN1CCN(c2nc(-c3cccc(Cl)c3)no2)CC1", "note": "[Cmpd028, 2-((4-(3-(3-Chlorophenyl)-1,2,4-oxadiazol-5-yl)piperazin-1-yl)methyl)benzonitrile]", "EC50": 48}
{"smiles": "C1CN(CCN2CCN(c3nc(C4C[C@@H]5CC[C@H]4C5)no3)CC2)CCO1", "note": "(stereo partly drawn) [Cmpd188, 4-(2-(4-(3-((1S,4R)-bicyclo[2.2.1]heptan-2-yl)-1,2,4-oxadiazol-5-yl)piperazin-1-yl)ethyl)morpholine]", "EC50": 4}
{"smiles": "Cc1ccc(CN2CCN(c3nc(-c4cccc(F)c4)no3)CC2)cc1", "note": "[Cmpd030, 3-(3-Fluorophenyl)-5-(4-(4-methylbenzyl)piperazin-1-yl)-1,2,4-oxadiazole]", "EC50": 13}
{"smiles": "Cc1cccc(CN2CCN(c3nc(Cc4cccc(F)c4)no3)CC2)c1", "note": "[Cmpd089, 1-[3-(3-Fluoro-benzyl)-[1,2,4]oxadiazol-5-yl]-4-(3-methyl-benzyl)-piperazine]", "EC50": 485}
{"smiles": "COc1cccc(CCN2CCN(c3nc(C(F)(F)c4ccc(F)cc4)no3)CC2)c1", "note": "[Cmpd150, 3-(Difluoro(4-fluorophenyl)methyl)-5-(4-(3-methoxyphenethyl)piperazin-1-yl)-1,2,4-oxadiazole]", "EC50": 199}
{"smiles": "Fc1cccc(-c2noc(N3CCN(CCc4ccc(Cl)cc4)CC3)n2)c1", "note": "[Cmpd031, 5-(4-(4-Chlorophenethyl)piperazin-1-yl)-3-(3-fluorophenyl)-1,2,4-oxadiazole]", "EC50": 31}
{"smiles": "Clc1ccc(CCN2CCN(c3nc(C4C[C@@H]5CC[C@H]4C5)no3)CC2)cc1", "note": "(stereo partly drawn) [Cmpd186, 3-((1S,4R)-bicyclo[2.2.1]heptan-2-yl)-5-(4-(4-chlorophenethyl)piperazin-1-yl)-1,2,4-oxadiazole]", "EC50": 17}
{"smiles": "Fc1ccc(-c2noc(N3CCN(CCc4ccc(Cl)cc4)CC3)n2)cc1F", "note": "[Cmpd036, 1-[2-(4-Chloro-phenyl)-ethyl]-4-[3-(3,4-difluoro-phenyl)-[1,2,4]oxadiazol-5-yl]-piperazine]", "EC50": 22}
{"smiles": "Cc1ccc(CN2CCN(c3nc(Cc4ccc(Cl)cc4)no3)CC2)cc1", "note": "[Cmpd063, 1-[3-(4-Chloro-benzyl)-[1,2,4]oxadiazol-5-yl]-4-(4-methyl-benzyl)-piperazine]", "EC50": 174}
{"smiles": "N#CCCCN1CCN(c2nc(Cc3ccc(Cl)cc3)no2)CC1", "note": "[Cmpd064, 4-{4-[3-(4-Chloro-benzyl)-[1,2,4]oxadiazol-5-yl]-piperazin-1-yl}-butyronitrile]", "EC50": 54}
{"smiles": "FC(F)(F)Cc1noc(N2CCN(CCc3ccc(Cl)cc3)CC2)n1", "note": "[Cmpd164, 5-(4-(4-Chlorophenethyl)piperazin-1-yl)-3-(2,2,2-trifluoroethyl)-1,2,4-oxadiazole]", "EC50": 306}
{"smiles": "Cc1ccc(CN2CCN(c3nc(C4(c5ccccc5)CC4)no3)CC2)cc1", "note": "[Cmpd130, 5-(4-(4-Methylbenzyl)piperazin-1-yl)-3-(1-phenylcyclopropyl)-1,2,4-oxadiazole]", "EC50": 185}
{"smiles": "COc1cccc(CCN2CCN(c3nc(-c4ccc(C)cc4)no3)CC2)c1", "note": "[Cmpd009, 5-(4-(3-Methoxyphenethyl)piperazin-1-yl)-3-(p-tolyl)-1,2,4-oxadiazole]", "EC50": 39}
{"smiles": "Clc1ccc(Cc2noc(N3CCN(CC4CCOCC4)CC3)n2)cc1", "note": "[Cmpd069, 3-(4-Chlorobenzyl)-5-(4-((tetrahydro-2H-pyran-4-yl)methyl)piperazin-1-yl)-1,2,4-oxadiazole]", "EC50": 161}
{"smiles": "Fc1ccccc1CN1CCN(c2nc(Cc3ccc(Cl)cc3)no2)CC1", "note": "[Cmpd061, 3-(4-Chlorobenzyl)-5-(4-(2-fluorobenzyl)piperazin-1-yl)-1,2,4-oxadiazole]", "EC50": 685}
{"smiles": "CC(C)CCN1CCN(c2nc(-c3ccccc3)no2)CC1", "note": "[Cmpd006, 5-(4-Isopentylpiperazin-1-yl)-3-phenyl-1,2,4-oxadiazole]", "EC50": 8}
{"smiles": "Fc1ccc(C2(c3noc(N4CCN(CCc5ccc(Cl)cc5)CC4)n3)CC2)cc1", "note": "[Cmpd111, 5-(4-(4-Chlorophenethyl)piperazin-1-yl)-3-(1-(4-fluorophenyl)cyclopropyl)-1,2,4-oxadiazole]", "EC50": 237}
{"smiles": "FC(F)(F)c1ccc(-c2noc(N3CCN(CCc4ccc(Cl)cc4)CC3)n2)cc1", "note": "[Cmpd183, 1-[2-(4-Chloro-phenyl)-ethyl]-4-[3-(4-trifluoromethyl-phenyl)-[1,2,4]oxadiazol-5-yl]-piperazine]", "EC50": 57}
{"smiles": "COc1cc(CCN2CCN(c3nc(-c4ccccc4)no3)CC2)ccn1", "note": "[Cmpd004, 5-(4-(2-(2-Methoxypyridin-4-yl)ethyl)piperazin-1-yl)-3-phenyl-1,2,4-oxadiazole]", "EC50": 36}
{"smiles": "Clc1ccc(Cc2noc(N3CCN(Cc4ccc5c(c4)OCO5)CC3)n2)cc1", "note": "[Cmpd055, 1-Benzo[1,3]dioxol-5-ylmethyl-4-[3-(4-chloro-benzyl)-[1,2,4]oxadiazol-5-yl]-piperazine]", "EC50": 452}
{"smiles": "CC(C)CCN1CCN(c2nc(Cc3ccc(Cl)cc3)no2)CC1", "note": "[Cmpd067, 3-(4-Chlorobenzyl)-5-(4-isopentylpiperazin-1-yl)-1,2,4-oxadiazole]", "EC50": 22}
{"smiles": "CCCN1CCN(c2nc(Cc3ccc(Cl)cc3)no2)CC1", "note": "[Cmpd066, 1-[3-(4-Chloro-benzyl)-[1,2,4]oxadiazol-5-yl]-4-propyl-piperazine]", "EC50": 145}
{"smiles": "Fc1ccc(C(F)(F)c2noc(N3CCN(Cc4ccc5c(c4)OCO5)CC3)n2)cc1", "note": "[Cmpd149, 5-(4-(Benzo[d][1,3]dioxol-5-ylmethyl)piperazin-1-yl)-3-(difluoro(4-fluorophenyl)methyl)-1,2,4-oxadiazole]", "EC50": 849}
{"smiles": "COc1cccc(CCN2CCN(c3nc(-c4ccc(Cl)cc4)no3)CC2)c1", "note": "[Cmpd021, 3-(4-Chlorophenyl)-5-(4-(3-methoxyphenethyl)piperazin-1-yl)-1,2,4-oxadiazole]", "EC50": 5}
{"smiles": "Cc1ccc(-c2noc(N3CCN(Cc4ccccc4C)CC3)n2)cc1", "note": "[Cmpd010, 5-(4-(2-Methylbenzyl)piperazin-1-yl)-3-(p-tolyl)-1,2,4-oxadiazole]", "EC50": 306}
